Experimental data taken from the supplement of paper PMC10307832.

Key:
Experiment in all cases: relative viability (nuclei count vs DMSO), 5 days (fraction); higher = more cells survive
IPA-3 + Decitabine = compound: C1=CC=C2C(=C1)C=CC(=C2SSC3=C(C=CC4=CC=CC=C43)O)O [IPA-3] + Nc1ncn([C@H]2C[C@H](O)[C@@H](CO)O2)c(=O)n1 [Decitabine] (partner 2 µM)
Outline: (§1)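 Medians of duplicate plates are given as relative viability. That measure is the nuclei count in treated wells divided by the count in vehicle wells. Counts were taken on 4× images of lung cancer cell lines in 1536-well plates, 5 days after pin-tool dosing the day after seeding with one drug alone or a fixed anchor-drug dose plus five library-drug doses (not always all listed) in √10 steps.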

Doramapimod + AZD7762 = compound: Cc1ccc(-n2nc(C(C)(C)C)cc2NC(=O)Nc2ccc(OCCN3CCOCC3)c3ccccc23)cc1 [Doramapimod] + NC(=O)Nc1cc(-c2cccc(F)c2)sc1C(=O)N[C@H]1CCCNC1 [AZD7762] (partner 0.2 µM)
Outline: as §1

IPA-3 + OSI-027 = compound: C1=CC=C2C(=C1)C=CC(=C2SSC3=C(C=CC4=CC=CC=C43)O)O [IPA-3] + COc1cccc2cc(-c3nc([C@H]4CC[C@H](C(=O)O)CC4)n4ncnc(N)c34)[nH]c12 [OSI-027] (partner 0.5 µM)
Outline: as §1

Doramapimod + Navitoclax = compound: Cc1ccc(-n2nc(C(C)(C)C)cc2NC(=O)Nc2ccc(OCCN3CCOCC3)c3ccccc23)cc1 [Doramapimod] + CC1(C)CCC(c2ccc(Cl)cc2)=C(CN2CCN(c3ccc(C(=O)NS(=O)(=O)c4ccc(N[C@H](CCN5CCOCC5)CSc5ccccc5)c(S(=O)(=O)C(F)(F)F)c4)cc3)CC2)C1 [Navitoclax] (partner 0.5 µM)
Outline: as §1

Row | Cell Line | relative viability (IPA-3 + Decitabine; first compound 0.2 µM) | relative viability (IPA-3 + Decitabine; first compound 0.6325 µM) | relative viability (IPA-3 + Decitabine; first compound 2 µM) | relative viability (IPA-3 + Decitabine; first compound 6.325 µM) | relative viability (IPA-3 + Decitabine; first compound 20 µM) | relative viability (Doramapimod + AZD7762; first compound 0.02 µM) | relative viability (Doramapimod + AZD7762; first compound 0.06325 µM) | relative viability (Doramapimod + AZD7762; first compound 0.2 µM) | relative viability (Doramapimod + AZD7762; first compound 0.6325 µM) | relative viability (Doramapimod + AZD7762; first compound 2 µM) | relative viability (IPA-3 + OSI-027; first compound 0.2 µM) | relative viability (IPA-3 + OSI-027; first compound 0.6325 µM) | relative viability (IPA-3 + OSI-027; first compound 2 µM) | relative viability (IPA-3 + OSI-027; first compound 6.325 µM) | relative viability (IPA-3 + OSI-027; first compound 20 µM) | relative viability (Doramapimod + Navitoclax; first compound 0.02 µM) | relative viability (Doramapimod + Navitoclax; first compound 0.06325 µM) | relative viability (Doramapimod + Navitoclax; first compound 0.2 µM) | relative viability (Doramapimod + Navitoclax; first compound 0.6325 µM) | relative viability (Doramapimod + Navitoclax; first compound 2 µM)
1 | NCI-H2405 | 0.797 | 0.737 | 0.723 | 0.721 | 0.746 | 0.821 | 0.746 | 0.758 | 0.895 | 0.686 | 0.651 | 0.644 | 0.669 | 0.691 | 0.666 | 0.901 | 0.831 | 0.812 | 1.33 | 0.804
2 | NCI-H460 | 0.65 | 0.41 | 0.492 | 0.465 | 0.324 | 0.658 | 0.702 | 0.726 | 0.805 | 0.531 | 1.2 | 0.615 | 0.658 | 0.671 | 0.78 | 1.12 | 1.01 | 1.14 | 1.13 | 1.01
3 | NCI-H1755 | 0.752 | 0.69 | 0.651 | 0.699 | 0.716 | 0.428 | 0.5 | 0.379 | 0.477 | 0.412 | 0.831 | 0.616 | 0.688 | 0.607 | 0.702 | 0.997 | 1 | 1 | 1.06 | 0.968
4 | NCI-H1734 | 0.59 | 0.457 | 0.469 | 0.44 | 0.436 | 0.418 | 0.608 | 0.498 | 0.75 | 0.434 | 0.619 | 0.632 | 0.507 | 0.612 | 0.56 | 0.723 | 0.799 | 0.692 | 0.77 | 0.572
5 | EPLC-272H | 0.406 | 0.397 | 0.325 | 0.38 | 0.397 | 0.209 | 0.209 | 0.254 | – | 0.22 | 0.293 | 0.281 | 0.236 | 0.264 | 0.335 | 1.14 | 0.943 | 1.12 | 1.23 | 0.978
6 | NCI-H2126 | 0.556 | 0.624 | 0.595 | 0.587 | 0.622 | 0.865 | 1.02 | 0.942 | 1.02 | 1.04 | 0.727 | 0.748 | 0.666 | 0.688 | 0.75 | 0.791 | 0.843 | 0.743 | 0.881 | 0.738
